The text below walks through data of EPA's ToxValDB 9.5 (doi:10.2903/j.efsa.2016.4609).

One data set has as its system Rattus norvegicus. The note with it: for NOAEL: gavage.
For a further data set, the system named is Oryctolagus sp. The note with it: developmental; development.
In a further data set the test system is Tagia sp. The note with it: chronic/long-term; mortality.
For the next data set, the system named is Apis mellifera. The note with it: acute, duration: 48 hours, mortality.
A further data set concerns Neomysis kadiakensis. The note with it: chronic/long-term; duration: 28 days; reproduction.
A further data set concerns Ictalurus punctatus. Conditions: acute; duration: 96 hours; mortality.
The next data set deals with Pimephales promelas. Conditions: chronic/long-term; duration: 56 days; mortality.
Where [1] appears, read: chronic, duration: 2 years, histopathology: neoplastic.

Each structure is given as a SMILES string. ≈ marks a conversion by molar mass, not a printed value. Where only a bound is given, the exact number is not on record here.

In the case of `NC(CCC(=O)Nc1cc(Cl)cc(Cl)c1)C(=O)O` (stereo unspecified) [N-(3,5-Dichlorophenyl)glutamine], the NOAEL – broadly, the highest dose or exposure tested at which no adverse effect was seen – amounted to 7.5 mg/kg-day in the data set on Rattus norvegicus (short-term, duration: 28 days, oral, Wistar) and 1 mg/kg-day in the data set on Rattus norvegicus (subchronic, duration: 90 days, oral, hematological).

`NC(=O)NC(=O)Nc1cc(Cl)c(O)c(Cl)c1` [N-(3,5-Dichloro-4-hydroxyphenyl)-2-imidodicarbonic diamide]: the values for the lowest observed adverse effect level (LOAEL) in the data set on Oryctolagus sp. and in the data set on Rattus norvegicus (setting [1]) were 20 mg/kg-day and 6.1 mg/kg-day, respectively.

`CC(C)NC(=O)N1CC(=O)N(c2cc(Cl)cc(Cl)c2)C1=O`: the NOEC in the data set with Tagia sp. was 1000 mg/kg; in the data set with Neomysis kadiakensis it was 0.0075 mg/L; in the data set on Pimephales promelas, 0.0731 mg/L. In addition, the LD50 is above 100 µg/piece with Apis mellifera (dermal); above 100 µg/piece with Apis mellifera (oral, unspecified); 3780 mg/kg-day in the data set on Colinus virginianus (acute, oral, mortality); above 2000 mg/kg-day in the data set with Rattus norvegicus (acute, oral, mortality). Also, the NOEL with Colinus virginianus (reproduction developmental) amounted to 22.3 mg/kg-day. In addition, the LC50 (usually the concentration lethal to half of the exposed cells or organisms) with Ictalurus punctatus came out at 3.1 µg/mL (≈ 9.39 µM). Moreover, the LOAEL (usually the lowest dose or exposure tested at which an adverse effect was seen) with Oryctolagus sp. was 20 mg/kg-day; in the data set on Rattus norvegicus (setting [1]), 6.1 mg/kg-day; with Rattus norvegicus (reproduction developmental, reproduction) it was 26.9 mg/kg-day.
